According to patent US4980349A, “Sulphonamides derived from diarylmethanes, the processes for preparing them and pharmaceutical compositions containing them” (SANOFI, priority 1986, dated 1990):
Read-outs that look alike come from different tables or passages of the source.

Experiments:
[1] = system: rat hind foot carragheenin-induced oedema; experiment: Carragheenin-induced oedema test; assay type: in vivo; settings: 3 h, first experiment, Table X, read-out: percentage inhibition of the inflammation; for change in vivo at 25 mg/kg: 25 mg/kg oral; for change in vivo at 50 mg/kg: 50 mg/kg oral; for change in vivo at 100 mg/kg: 100 mg/kg oral
Protocol: In this test, 10 rats are used per test compound of the invention. Control batches of 10 rats also receive either the comparative compound (ketoprofen) or exclusively an NaCl solution.
The compounds of the invention are administered orally (stomach tube) one hour before the injection of carragheenin.
The carragheenin is suspended at a concentration of 1% in a 0.9% isotonic sodium chloride solution. The volume injected into the rat's foot is 0.20 ml.
The volume of the foot is measured before the injection and 3 hours later. The antagonistic effect of the products towards carragheenin is reflected in the inhibition of the volume of the oedema compared with control rats. The latter receive only isotonic NaCl solution under identical conditions.

[2] = system: pain threshold of brewer's yeast inflamed rat hind foot; experiment: Randall and Sellitto's test (analgesic activity); assay type: in vivo
Protocol: Inflammation increases the sensitivity to pain, in particular to pressure, and analgesics raise the threshold of the sensitivity.
The inflammation is obtained by injecting 0.1 ml of a 20% strength aqueous suspension of brewer's yeast under the plantar aponeurosis of one of the hind feet. […] The pain threshold is assessed in terms of the force necessary and sufficient to initiate a characteristic reaction of withdrawing the foot.
The sensitivity to pain of the inflamed foot reaches a plateau 4 hours after the injection of the brewer's yeast, and then remains stable until the 6th hour. The pain threshold of the inflamed foot in control rats weighing 140 g is reached for pressures of 50 to 60 g, whereas it is around 160 g for the intact foot.
The action of the substance administered orally to series of 10 rats is expressed in terms of the percentage increase in the mean pain threshold, compared with that measured in the rats of a control series of 10 animals which have not received a compound of the invention.
The test products are administered orally (stomach tube) one hour before the injection of brewer's yeast.
The comparative compound used is ketoprofen.

[3] = system: foreign-body (sponge) granuloma in rats; experiment: Experimental granuloma induced by foreign body, histological study; assay type: in vivo, Wistar rats; settings: 8 days, Table XI
Protocol: This test consists in studying the subacute cellular phase which is developed in the 8 days which follow the implantation of a foreign body, a sponge of non-resorbable plastic, in the dorsal subcutaneous connective tissue in rats.
The granulomas formed are removed 8 days after the implantation; a histological study is carried out after fixing the tissue and staining sections with hematein/ eosin. The observation is more especially concerned with the cell population of the primary phase of the formation of the granulation tissue: the reticulohistocytic cells, lymphocytes and more especially the macrophages.
The animals used are Wistar rats weighing 120-140 g and of the same origin, maintained under the same conditions of housing throughout the treatment (8 days).
The compounds of the invention are administered orally, in a gum suspension, in the morning in a fasted state, using an oesophageal tube.
After 8 days of treatment, the rats are sacrificed by decapitation and the granulomas removed and prepared for the purpose of histological examination.
The experiment conditions are as follows:
The animals are distributed in batches of 10;
Each test product is administered at 2 doses, of 50 and 100 mg, respectively, to 2 batches of 10 animals;
Ketoprofen is used by way of reference product at the same 2 doses and under the same conditions; and
A batch of 10 control animals receives no treatment.
In this experiment, on the one hand a histological study of the granulomas is performed by sampling on day 8 (results recorded in Table XIa), and on the other hand a study of the weight of the granulomas was performed 10 days after the implantation (results recorded in Table XIb).

[4] = system: rat hind foot kaolin-induced oedema; experiment: Kaolin-induced arthritis test, first experiment (decrease in inflammation, foot volume); assay type: in vivo; settings: 1 h before kaolin, Table IX, read-out: percentage decrease in the inflammation; for change in vivo at 25 mg/kg: 25 mg/kg oral; for change in vivo at 50 mg/kg: 50 mg/kg oral; for change in vivo at 100 mg/kg: 100 mg/kg oral
Protocol: The […] of 0.05 ml of a sterile 10% strength suspension of kaolin into the metatarsal flexor sheath of the hind foot of a rat initially induces an oedematous reaction. An inflammatory arthritis then forms.
The early oedematous reaction appears from the first hour, and reaches its maximum between the fourth hour and the sixth hour. This is the manifestation of interest. The assessment of the volume of the foot enables the action of substances on the oedematous reaction to be studied. The measurements are carried out using a Giono and Chevilard plethysmometer.
The test products are administered orally (stomach tube) one hour before the injection of the kaolin.
The results are expressed as a percentage decrease in the inflammation in the treated animals compared with a control series of animals.
The batches are of 10 animals per dose and 10 control animals.
The figures shown represent the mean of 10 animals.

[5] = system: biosynthesis of leukotrienes B4 (LTB4), human polymorphonuclear leukocytes; experiment: Biosynthesis of LTB4, isomers and oxidized metabolites in human polymorphonuclear leukocytes; assay type: cell-based; settings: Leukocyte, first experiment
Protocol: Polymorphonuclear leukocytes are isolated from human blood and used during the 6 hours following the withdrawal. The viability of the cells is checked by trypan blue exclusion.
5×10^6 cells are incubated for 10 minutes at 37° C. in the presence of the test product dissolved in DMSO, and are stimulated with ionophore A 23187 (Galbiochem, 10 μM) in PBS buffer at pH 7.4, Ca^2+ and Mg^2+ =1 μM.
100 ng of prostaglandin B2 (PGB2), dissolved in methanol, are added at the end of the reaction to act as an internal standard.
On centrifugation, the culture supernatant is withdrawn. The latter is retrieved under argon and stored at -80° C. until analysed by HPLC.
This analysis is carried out by injecting 250 μl onto a 5 μm ODS ultrasphere column (Beckmann), with a gradient of acetonitrile (20-80%) in water, at pH 7.4.
The amounts of the different products which absorb at 269 nm, i.e. leukotrienes B4 (LTB4), isomers of LTB4 and oxidized metabolites of LTB4, are estimated by comparison with the internal standard.
The test product is used at a concentration of 40 μM.
They are expressed either as a percentage inhibition, or as a percentage increase in the production of LTB4, isomers of LTB4 and oxidized metabolites of LTB4 (designated by +).
The experimental model is the same as that described in Section 2.1. Other products are tested by comparison with the compound of the invention no. 1574, used as a control.

[6] = 25 mg/kg oral, first experiment, Table XII, read-out: percentage increase in the mean pain threshold
[7] = 50 mg/kg oral, first experiment, Table XII, read-out: percentage increase in the mean pain threshold
[8] = 100 mg/kg oral, first experiment, Table XII, read-out: percentage increase in the mean pain threshold
[9] = both doses (50 and 100 mg/kg) oral
[10] = read-out: Isomers of LTB4: percentage inhibition (+ : percentage increase in the production)
[11] = read-out: LTB4: percentage inhibition (+ : percentage increase in the production)
[12] = read-out: Oxidized metabolites of LTB4: percentage inhibition (+ : percentage increase in the production)

O=C(O)CCCCCNS(=O)(=O)c1ccc(Cl)cc1C(=O)c1ccccc1Cl [Compound 1570]
change in vivo at 25 mg/kg [1]: -20% | change in vivo at 50 mg/kg [1]: -29% | change in vivo at 100 mg/kg [1]: -40% | change in vivo at 25 mg/kg [2, 6]: 15% | change in vivo at 50 mg/kg [2, 7]: 25% | change in vivo at 100 mg/kg [2, 8]: 53% | histological study of the granuloma ([3]; 50 mg/kg oral): anti-inflammatory activity is exhibited | histological study of the granuloma ([3]; 100 mg/kg oral): distinct | change in vivo at 25 mg/kg [4]: -10% | change in vivo at 50 mg/kg [4]: -25% | change in vivo at 100 mg/kg [4]: -52%

CC(C(=O)O)c1cccc(C(=O)c2ccccc2)c1 (stereo not shown) [Ketoprofen, ketoprofen, reference compound]
change in vivo at 25 mg/kg ([1]; po): -25% | change in vivo at 50 mg/kg ([1]; po): -45% | change in vivo at 100 mg/kg ([1]; po): -65% | change in vivo at 25 mg/kg ([2]; po, read-out: percentage increase in the mean pain threshold, 25 mg/kg oral, first experiment, Table XII): 22% | change in vivo at 25 mg/kg ([2]; po, read-out: percentage increase in the mean pain threshold, 25 mg/kg oral, second experiment, Table XIIa): 50% | change in vivo at 50 mg/kg ([2]; po, read-out: percentage increase in the mean pain threshold, 50 mg/kg oral, first experiment, Table XII): 55% | change in vivo at 50 mg/kg ([2]; po, read-out: percentage increase in the mean pain threshold, 50 mg/kg oral, second experiment, Table XIIa): 55% | change in vivo at 100 mg/kg ([2]; po, read-out: percentage increase in the mean pain threshold, 100 mg/kg oral, first experiment, Table XII): 78% | change in vivo at 100 mg/kg ([2]; po, read-out: percentage increase in the mean pain threshold, 100 mg/kg oral, second experiment, Table XIIa): 58% | histological study of the granuloma [3, 9]: very substantial decrease | change in vivo at 25 mg/kg [4]: -30% | change in vivo at 50 mg/kg [4]: -51% | change in vivo at 100 mg/kg [4]: -73%

O=C(O)CCCCCCCCCCNS(=O)(=O)c1ccc([N+](=O)[O-])cc1C(=O)c1ccccc1 [Compound 1571]
change in vivo at 25 mg/kg [1]: -23% | change in vivo at 50 mg/kg [1]: -27% | change in vivo at 100 mg/kg [1]: -48% | change in vivo at 25 mg/kg [2, 6]: 25% | change in vivo at 50 mg/kg [2, 7]: 32% | change in vivo at 100 mg/kg [2, 8]: 36% | inhibition at 40 µM [5, 10]: 53% | inhibition at 40 µM [5, 11]: 60% | inhibition at 40 µM [5, 12]: 70% | change in vivo at 25 mg/kg [4]: -17% | change in vivo at 50 mg/kg [4]: -26% | change in vivo at 100 mg/kg [4]: -50%

O=C(O)CCCCCCCCCCNS(=O)(=O)c1ccc(C(=O)c2ccccc2)cc1 [Compound 1686]
change in vivo at 25 mg/kg [1]: -50% | change in vivo at 50 mg/kg [1]: -50% | change in vivo at 100 mg/kg [1]: -55% | change in vivo at 25 mg/kg [2, 6]: 35% | change in vivo at 50 mg/kg [2, 7]: 50% | change in vivo at 100 mg/kg [2, 8]: 50% | inhibition at 40 µM [5, 10]: 5% | inhibition at 40 µM [5, 11]: 0% | inhibition at 40 µM [5, 12]: 25% | change in vivo at 25 mg/kg [4]: -50% | change in vivo at 50 mg/kg [4]: -50% | change in vivo at 100 mg/kg [4]: -50%

O=C(c1ccc(Cl)cc1)c1ccccc1S(=O)(=O)NCCCN1CCOCC1 [Compound 1410]
change in vivo at 25 mg/kg [1]: -15% | change in vivo at 50 mg/kg [1]: -25% | change in vivo at 100 mg/kg [1]: -48% | change in vivo at 25 mg/kg [2, 6]: 19% | change in vivo at 50 mg/kg [2, 7]: 37% | change in vivo at 100 mg/kg [2, 8]: 58% | histological study of the granuloma [3, 9]: inflammatory reaction is attenuated | change in vivo at 25 mg/kg [4]: -18% | change in vivo at 50 mg/kg [4]: -32% | change in vivo at 100 mg/kg [4]: -57%
